# Assay results published in patent US6977254B2, “Hydroxy cyclohexenyl phenyl carboxamides tocolytic oxytocin receptor antagonists” (Wyeth, priority 2001, dated 2005).
# Biological target: T1, human V2 vasopressin receptor subtype (Homo sapiens, UniProt P30518)
# T1 construct: host or cells: CHO cells, stably transfected (pZeoSV vector); membranes
# Experiment: Vasopressin binding in CHO cell membranes expressing human vasopressin V2 subtype receptors ([3H]arginine vasopressin)
# Conditions: 100 nM, value without parentheses
# Text: Vasopressin Binding in Chinese Hamster Ovary Cell Membranes Expressing Human Vasopressin V2 Subtype Receptors
# Chinese Hamster Ovary (CHO) cells stably transfected with the human V2 subtype receptors were obtained from M. Thibonnier, Case Western Reserve University School of Medicine, Cleveland, Ohio.
# A. Passaging and Amplification of Cells:
# CHO cells transfected with the human vasopressin V2 subtype receptors obtained from M. Thibonnier (pZeoSV vector) are allowed to grow to confluency (approx. >90%) in T-150 flasks under sterile conditions, in a cell culture medium of F-12 Nutrient Mixture (HAM) with L-glutamine (Gibco Cat. #11765-054) containing 15 mM HEPES (Gibco Cat. #15630-080), 1% antibiotic/antimycotic (add 5 mL 100×, Gibco Cat. #15240-062 per 500 mL F-12), 250 μg/mL Zeocin (add 1.25 mL of 100 mg/mL Invitrogen R-250-01 per 500 mL F-12) and 10% Fetal Bovine Serum (Qualified, heat inactivated, Gibco Cat. #16140-063). The medium is removed by aspiration and the cells washed with 10 mL of Hank's Balanced Salt solution (Gibco Cat. #14175-095). The salt solution is removed by aspiration and the cells trypsinized with 5 mL of trypsin-EDTA (0.05% trypsin, 0.53 mM EDTA-4Na, Gibco Cat. #25300-070) for 1 min. The trypsin is removed by aspiration and the cells dislodged by tapping. Cell Culture medium (e.g. 30 mL for 1:30 split) is immediately added and mixed well to inactivate trypsin. 1 mL of detached cells is added to new culture flasks containing fresh Cell Culture medium (e.g. into 25 mL per T-150 flask), and mixed gently. The cells are incubated at 37° C. in 5% CO2. The medium is changed at 3 to 4 day interval (or as appropriate). The cells grow to confluency (approx. >75%-95%) within 7-8 days. All steps are done under sterile conditions.
# The cells are washed twice gently with Hank's Balanced Salt solution (e.g. use 10 mL per T-150 flask). The excess solution is removed and the cells bathed for 15-30 min. in an enzyme-free Cell Dissociation Buffer (e.g. use 8 mL Hank's Based, Gibco Cat. #13150-016 per T-150 flask) until cells are loosened. The contents are transferred to centrifuge tubes (50 mL size) kept in ice bath. All subsequent steps are done at 4° C. The tubes are centrifuged at 300×g for 15 min (1380 rpm on SORVAL, Model RT6000D, using rotor for 50 mL tubes). The supernatant is discarded and the cells suspended in homogeneizing buffer(10 mM Tris-HCl containing 0.25 M sucrose and 1 mM EDTA, pH 7.4) ensuring that the volume of the buffer is about ten times the volume of the cell pellet. The cells are pooled into a centrifuge tube (50 mL) and homogenized with Polytron at setting 6 for 10 sec. The homogenate is transferred into a Potter-Elvjehm homogeneizer and homogenized with 3 strokes. The homogenate is centrifuged at 1500×g for 60 min at 4° C. (3100 rpm using SORVAL, model RT6000D, using rotor for 50 mL tubes). The pellet is discarded. The supernatant is centrifuged at 100,000×g for 60 min. at 4° C. (Beckman L8-80M ultracentrifuge; spin at 37,500 rpm with rotor type 70 Ti for 50 mL tubes; 38,000 rpm with type 80Ti for 15 mL tubes; or 35,800 rpm with rotor type 45Ti). The supernantant is discarded and the pellet suspended in 3 to 4 mL of Tris buffer (50 mM TRIS-HCl, pH 7.4). The protein content is estimated by the Bradford or Lowry method. The volume of the membrane suspension is adjusted with the membrane buffer (50 mM Tris-HCl containing 0.1% BSA and 0.1 mM PMSF) to give 3.0 mg/mL (or as appropriate) of protein. The membranes are aliquoted and stored at −70° C.
# C. Radioligand Binding Assay:
# In wells of a 96-well format microtiter plate, is added 90, 110 or 130 μL (to make up a final volume of 200 μL) of assay buffer containing 50 mM of Tris-HCl (pH 7.4), […], 1 mg % aprotinin, 1 mg % leupeptin, 2 mg % 1,10-phenanthroline, 10 mg % trypsin inhibitor, and 0.1 mM PMSF. The inhibitors are added on the day of the experiment. […]
# T1 sequence (P30518 whole entry): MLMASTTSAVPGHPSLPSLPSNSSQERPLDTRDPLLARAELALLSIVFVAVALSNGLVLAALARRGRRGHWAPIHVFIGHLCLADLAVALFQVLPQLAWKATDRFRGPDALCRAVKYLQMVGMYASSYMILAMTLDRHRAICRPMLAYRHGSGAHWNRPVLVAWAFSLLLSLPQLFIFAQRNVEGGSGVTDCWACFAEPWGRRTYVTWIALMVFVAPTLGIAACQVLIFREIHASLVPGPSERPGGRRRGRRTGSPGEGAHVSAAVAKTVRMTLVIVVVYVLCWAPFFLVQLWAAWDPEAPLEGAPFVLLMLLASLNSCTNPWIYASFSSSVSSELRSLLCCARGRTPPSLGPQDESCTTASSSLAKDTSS
inhibition at 0.1 µM,V2 % inhibition @ 100 nM,SMILES
40%,–,"Cc1cc(C(=O)N2Cc3ccc(C(=O)O)n3Cc3ccccc32)ccc1C1=CCCc2ccccc21 [Example 15B, 10-[4-(3,4-Dihydro-naphthalen-1-yl)-3-methyl-benzoyl]-10,11-dihydro-5H-pyrrolo[2,1-c][1,4]benzodiazepine-3-carboxylic acid]"
4%,–,"COc1cc(C2=CCCCC2)c(Cl)cc1C(=O)N1Cc2ccc(C(=O)O)n2Cc2ccccc21 [Example 1G, 10-(5-Chloro-4-cyclohex-1-en-1-yl-2-methoxybenzoyl)-10,11-dihydro-5H-pyrrolo[2,1-c][1,4]benzodiazepine-3-carboxylic acid]"
–,1%,"Cc1cc(C(=O)N2Cc3ccc(C(=O)C(Cl)(Cl)Cl)n3Cc3ccccc32)ccc1C1=CCCCC1 [Example 5D, 2,2,2-Trichloro-1-[10-(4-cyclohex-1-en-1-yl-3-methyl-benzoyl)-10,11-dihydro-5H-pyrrolo[2,1-c][1,4]benzodiazepin-3-yl]-methanone]"

# Further lines, the compound ahead of its results:
SMILES,inhibition at 0.1 µM,V2 % inhibition @ 100 nM
"Cc1cc(C(=O)N2Cc3ccc(C(=O)N[C@@H](CO)C(=O)O)n3Cc3ccccc32)ccc1C1=CCCCC1 [Example 13, (2S)-2-{[10-(4-Cyclohex-1-en-1-yl-3-methyl-benzoyl)-10,11-dihydro-5H-pyrrolo[2,1-c][1,4]benzodiazepine-3-carbonyl]-amino}-3-hydroxy-propionic acid]",9%,–
"COC(=O)[C@H](CO)NC(=O)c1ccc2n1Cc1ccccc1N(C(=O)c1ccc(C3=CCCCC3)c(C)c1)C2 [Example 11, (2S)-2-{[10-(4-Cyclohex-1-en-1-yl-3-methyl-benzoyl)-10,11-dihydro-5H-pyrrolo[2,1-c][1,4]benzodiazepine-3-carbonyl]-amino}-3-hydroxy-propionic acid methyl ester]",10%,–
Cc1cc(C(=O)N2Cc3ccc(C(=O)N[C@@H](Cc4ccc(O)cc4)C(=O)O)n3Cc3ccccc32)ccc1C1=CCCCC1 [Example 10],–,15%

# Same assay, conditions: value in parentheses
row,IC50,SMILES
1,1560 nM,"COc1cc(C2=CCCCC2)c(Cl)cc1C(=O)N1Cc2ccc(C(=O)N(C)C[C@H](O)[C@@H](O)[C@H](O)[C@H](O)CO)n2Cc2ccccc21 [Example 1, 1-[[[10-[5-Chloro-4-(1-cyclohex-1-en-1-yl)-2-methoxybenzoyl]-10,11-dihydro-5H-pyrrolo[2,1-c][1,4]benzodiazepin-3-yl]carbonyl]methylamino]-1-deoxy-D-glucitol]"
2,2620 nM,"COc1cc(C2=CCCCC2)c(Cl)cc1C(=O)N1Cc2ccc(C(=O)N(C)C[C@@H]3OC(=O)O[C@H]3[C@H](O)[C@H]3COC(=O)O3)n2Cc2ccccc21 [Example 3, 10-(5-Chloro-4-cyclohex-1-en-1-yl-2-methoxybenzoyl)-N-[((4S,5S)-5-{(R)-hydroxy[(4R)-2-oxo-1,3-dioxolan-4-yl]methyl}-2-oxo-1,3-dioxolan-4-yl)methyl]-N-methyl-10,11-dihydro-5H-pyrrolo[2,1-c][1,4]benzodiazepine-3-carboxamide]"
3,121 nM,Cc1cc(C(=O)N2Cc3ccc(C(=O)N(C)C[C@H](O)[C@@H](O)[C@H](O)[C@H](O)CO)n3Cc3ccccc32)ccc1C1=CCCc2ccccc21 [Example 15]
4,4590 nM,"COC[C@@H](OC)[C@@H](OC)[C@H](OC)[C@H](CN(C)C(=O)c1ccc2n1Cc1ccccc1N(C(=O)c1cc(Cl)c(C3=CCCCC3)cc1OC)C2)OC [Example 2, 10-(5-Chloro-4-cyclohex-1-en-1-yl-2-methoxybenzoyl)-N-methyl-N-[(2S,3R,4R,5R)-2,3,4,5,6-pentamethoxyhexyl]-10,11-dihydro-5H-pyrrolo[2,1-c][1,4]benzodiazepine-3-carboxamide]"
5,2110 nM,Cc1cc(C(=O)N2Cc3ccc(C(=O)N(C)C[C@H](O)[C@@H](O)[C@H](O)[C@H](O)CO)n3Cc3ccccc32)ccc1C1=CCCCC1 [Example 5]
6,1490 nM,"COc1cc(C2=CCCCC2)c(Cl)cc1C(=O)N1Cc2ccc(C(=O)N(C)CC(O)CO)n2Cc2ccccc21 (stereo not drawn) [Example 4, 10-(5-Chloro-4-cyclohex-1-en-1-yl-2-methoxybenzoyl)-N-(2,3-dihydroxypropyl)-N-methyl-10,11-dihydro-5H-pyrrolo[2,1-c][1,4]benzodiazepine-3-carboxamide]"
